# Laboratory results reported in paper PMC7450057, “Enhancing intracellular accumulation and target engagement of PROTACs with reversible covalent chemistry” (Nature Communications, 2020).
# “And” between values parts separate entries of the source, which are not always exact repeats. Identical values can stand only once. “Also recorded” adds a separate entry of the source.
# How the values were obtained:
# [1] = target: T1, full-length BTK protein (Homo sapiens, UniProt Q06187); test: BTK binding assay (Kd, Eurofins DiscoverX)
# T1 construct: Kd was measured using the full-length BTK protein by Eurofins DiscoverX; T7 phage fusion or DNA tag for qPCR (generic vendor protocol); purchased Eurofins DiscoverX
# In short: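 Competition binding of DNA-tagged full-length BTK (T7 phage or HEK-293 produced) against immobilised ligand on blocked beads, with the remaining kinase quantified by qPCR. An 11-point 3-fold compound dilution was tested at 1% final DMSO. Kd came from a Hill fit with slope fixed at −1.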
# [2] = target: truncated Cereblon protein (Homo sapiens, UniProt Q96SW2); test: CRBN binding assay (fluorescence quenching); conditions: for Fluorescence Intensity: Supplementary Figure 11, replicates
# Procedure: The Kd values of compounds to CRBN were measured based on fluorescence quenching after compounds binding to CRBN. […] All the compounds were dissolved in DMSO (10 mM) as stock solutions. The final drug concentration is 100 nM. […] Fluorescence intensity values for control wells (assay buffer only) were subtracted from each data point prior to analysis. The Kd was calculated using GraphPad Prism with the following equation curve fit. I=I0−If×Kd/P0+Kd+If
# [3] = tested on: MOLM-14 cells; test: Quantification of intracellular drug concentration by LC-MS; format: in vitro ADME; conditions: for Intracellular concentration: Concentration of compound, AVE / intracellular amount, AVE / intracellular amount / Intracellular concentration: Concentration of compound: 200 nM; for Intracellular concentration: Concentration of compound, AVE / intracellular amount, AVE: average of 3 replicates; for intracellular amount: initial amount 0.4000 nmol; for Intracellular concentration: Concentration of compound: sample volume 400 µL
# Procedure: MOLM-14 cells were seeded at a density of 0.5 × 10^6 per mL in 2 mL medium. […] The samples were immediately centrifuged at 12,000 × g for 15 min at 4 °C, then removing the supernatant. In all, 400 μL of NP-40 lysis buffer was added to the cell pellet and mixed thoroughly. The mixtures were rocked for 1 h at 4 °C and centrifuged at 12,000 × g for 15 min at 4 °C. Then the supernatant was transferred to new EP tubes. In total, 20 µL supernatant was extracted with 180 µL of acetonitrile (containing internal standard: 250 nM of RNC-Ctrl) and centrifuged at the same conditions described above. Take 75 μL of supernatant for liquid chromatography-mass spectrometry analysis.
# The mass spectrometer was operated in positive SIM ion mode (fragmentor 120 V; cycle time 0.6 s/cycle; Agilent Technologies 6130 Quadrupole LC/MS).
# [4] = target: BTK (Homo sapiens, UniProt Q06187); test: BTK degradation in MOLM-14 cells (western blot); format: cell-based; set-up: endogenous in cells; host or cells: MOLM-14; conditions: for Quantification anti-BTK / anti-β-actin (BTK level vs DMSO): Figure 2b, duplicates
# Sequence of BTK (Q06187 whole entry): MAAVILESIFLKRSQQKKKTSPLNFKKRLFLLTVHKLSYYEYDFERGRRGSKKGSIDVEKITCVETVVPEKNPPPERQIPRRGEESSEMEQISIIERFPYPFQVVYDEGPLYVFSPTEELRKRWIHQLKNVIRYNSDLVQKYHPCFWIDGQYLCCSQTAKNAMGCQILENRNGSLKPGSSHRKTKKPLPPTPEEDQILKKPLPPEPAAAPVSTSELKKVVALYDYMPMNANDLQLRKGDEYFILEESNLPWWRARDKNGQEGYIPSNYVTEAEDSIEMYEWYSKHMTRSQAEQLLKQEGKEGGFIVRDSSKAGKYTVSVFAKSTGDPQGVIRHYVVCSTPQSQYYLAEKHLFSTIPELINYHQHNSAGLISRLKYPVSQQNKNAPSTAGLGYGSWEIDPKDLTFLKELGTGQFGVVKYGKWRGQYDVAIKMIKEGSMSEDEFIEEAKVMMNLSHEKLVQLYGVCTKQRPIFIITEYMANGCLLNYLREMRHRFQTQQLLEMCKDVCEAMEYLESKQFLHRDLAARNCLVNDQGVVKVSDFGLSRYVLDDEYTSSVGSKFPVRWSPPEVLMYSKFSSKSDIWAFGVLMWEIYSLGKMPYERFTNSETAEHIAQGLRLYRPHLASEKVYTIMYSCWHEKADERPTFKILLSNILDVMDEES
# Sequence of truncated Cereblon protein (Q96SW2 318-426): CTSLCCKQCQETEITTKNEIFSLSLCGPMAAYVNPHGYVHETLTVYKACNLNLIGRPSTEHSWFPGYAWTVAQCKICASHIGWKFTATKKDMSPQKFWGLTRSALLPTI
# T1 sequence (Q06187 whole entry, the tested form may be a part): as the sequence (Q06187 whole entry) above
compound,measurement,setting,value
CN(CC=CC(=O)N1CCCC(n2nc(-c3ccc(Oc4ccccc4)cc3)c3c(N)ncnc32)C1)CCCNC(=O)CNc1cccc2c1C(=O)N(C1CCC(=O)NC1=O)C2=O (stereo not shown) [IRC-1],Signal,"[1]; BTK_+DTT, compound concentration 0.00491 nM",2.11E-05 and 2.14E-05
same,Signal,"[1]; BTK_+DTT, compound concentration 0.0147 nM",1.62E-05 and 1.97E-05
same,Signal,"[1]; BTK_+DTT, compound concentration 0.0442 nM",2.15E-05 and 2.03E-05
same,Signal,"[1]; BTK_+DTT, compound concentration 0.133 nM",2.11E-05 and 2.33E-05
same,Signal,"[1]; BTK_+DTT, compound concentration 0.398 nM",1.86E-05 and 1.95E-05
same,Signal,"[1]; BTK_+DTT, compound concentration 1.19 nM",1.43E-05 and 1.52E-05
same,Signal,"[1]; BTK_+DTT, compound concentration 3.58 nM",1.06E-05 and 1.08E-05
same,Signal,"[1]; BTK_+DTT, compound concentration 10.7 nM",5.42E-06 and 5.34E-06
same,Signal,"[1]; BTK_+DTT, compound concentration 32.2 nM",1.75E-06 and 1.73E-06
same,Signal,"[1]; BTK_+DTT, compound concentration 96.7 nM",3.47E-07 and 3.72E-07
same,Signal,"[1]; BTK_+DTT, compound concentration 290 nM",8.87E-08 and 9.98E-08
same,Signal,"[1]; BTK_-DTT, compound concentration 0.0152 nM",1.52E-05 and 1.19E-05
same,Signal,"[1]; BTK_-DTT, compound concentration 0.0457 nM",1.62E-05 and 1.68E-05
same,Signal,"[1]; BTK_-DTT, compound concentration 0.137 nM",1.78E-05 and 1.76E-05
same,Signal,"[1]; BTK_-DTT, compound concentration 0.412 nM",1.29E-05 and 1.60E-05
same,Signal,"[1]; BTK_-DTT, compound concentration 1.23 nM",1.07E-05 and 1.11E-05
same,Signal,"[1]; BTK_-DTT, compound concentration 3.7 nM",7.15E-06 and 6.34E-06
same,Signal,"[1]; BTK_-DTT, compound concentration 11.1 nM",3.52E-06 and 2.70E-06
same,Signal,"[1]; BTK_-DTT, compound concentration 33.3 nM",1.15E-06
same,Signal,"[1]; BTK_-DTT, compound concentration 100 nM",3.02E-07 and 3.08E-07
same,Signal,"[1]; BTK_-DTT, compound concentration 300 nM",1.03E-07 and 9.31E-08
same,Kd,"[1]; full-length BTK, absence of DTT in the buffer, duplicates",3 nM
same,Fluorescence Intensity,[2]; CRBN 0 μM,2824.6 and 2800.6 and 2664.6
same,Fluorescence Intensity,[2]; CRBN 0.734375 μM,1780.6 and 1887.6 and 2192.6
same,Fluorescence Intensity,[2]; CRBN 1.46875 μM,1780.6 and 1687.6 and 2021.6
same,Fluorescence Intensity,[2]; CRBN 2.9375 μM,1637.6 and 1410.6 and 1592.6
same,Fluorescence Intensity,[2]; CRBN 5.875 μM,1188.6 and 1223.6 and 1189.6
same,Fluorescence Intensity,[2]; CRBN 11.75 μM,912.6 and 875.6 and 944.6
same,Fluorescence Intensity,[2]; CRBN 23.5 μM,936.6 and 917.6 and 925.6
same,Kd,"[2]; truncated Cereblon protein, fluorescence quenching, triplicates, read-out: Kd",1500 nM
same,"Intracellular concentration: Concentration of compound, AVE",[3]; 5 min,0.0785 µM
same,"intracellular amount, AVE",[3]; 5 min,0.0314 nmol
same,intracellular amount,"[3]; 5 min, single replicates",0.0285 nmol and 0.0325 nmol and 0.0332 nmol
same,Intracellular concentration: Concentration of compound,"[3]; 5 min, single replicates",0.0713 µM and 0.0812 µM and 0.0831 µM
same,"Intracellular concentration: Concentration of compound, AVE",[3]; 15 min,0.0779 µM
same,"intracellular amount, AVE",[3]; 15 min,0.0311 nmol
same,intracellular amount,"[3]; 15 min, single replicates",0.0307 nmol and 0.0322 nmol and 0.0305 nmol
same,Intracellular concentration: Concentration of compound,"[3]; 15 min, single replicates",0.0767 µM and 0.0806 µM and 0.0763 µM
same,"Intracellular concentration: Concentration of compound, AVE",[3]; 30 min,0.0702 µM
same,"intracellular amount, AVE",[3]; 30 min,0.0281 nmol
same,intracellular amount,"[3]; 30 min, single replicates",0.0259 nmol and 0.0296 nmol and 0.0288 nmol
same,Intracellular concentration: Concentration of compound,"[3]; 30 min, single replicates",0.0648 µM and 0.0740 µM and 0.0719 µM
same,"Intracellular concentration: Concentration of compound, AVE",[3]; 60 min,0.0651 µM
same,"intracellular amount, AVE",[3]; 60 min,0.0260 nmol
same,intracellular amount,"[3]; 60 min, single replicates",0.0274 nmol and 0.0266 nmol and 0.0240 nmol
same,Intracellular concentration: Concentration of compound,"[3]; 60 min, single replicates",0.0686 µM and 0.0666 µM and 0.0601 µM
same,"Intracellular concentration: Concentration of compound, AVE",[3]; 90 min,0.0717 µM
same,"intracellular amount, AVE",[3]; 90 min,0.0287 nmol
same,intracellular amount,"[3]; 90 min, single replicates",0.0275 nmol and 0.0290 nmol and 0.0295 nmol
same,Intracellular concentration: Concentration of compound,"[3]; 90 min, single replicates",0.0688 µM and 0.0725 µM and 0.0738 µM
same,"Intracellular concentration: Concentration of compound, AVE",[3]; 120 min,0.0652 µM
same,"intracellular amount, AVE",[3]; 120 min,0.0261 nmol
same,intracellular amount,"[3]; 120 min, single replicates",0.0239 nmol and 0.0281 nmol and 0.0261 nmol
same,Intracellular concentration: Concentration of compound,"[3]; 120 min, single replicates",0.0598 µM and 0.0703 µM and 0.0653 µM
same,"Intracellular concentration: Concentration of compound, AVE",[3]; 240 min,0.0595 µM
same,"intracellular amount, AVE",[3]; 240 min,0.0238 nmol
same,intracellular amount,"[3]; 240 min, single replicates",0.0228 nmol and 0.0239 nmol and 0.0246 nmol
same,Intracellular concentration: Concentration of compound,"[3]; 240 min, single replicates",0.0571 µM and 0.0598 µM and 0.0616 µM
same,Cellular concentration,"[3]; 5 min, Mean",0.0314 nmol/million cells
same,Cellular concentration,"[3]; 5 min, single replicates, MOLM-14, 200 nM",0.0285 nmol/million cells and 0.0325 nmol/million cells and 0.0332 nmol/million cells
same,Cellular concentration,"[3]; 15 min, Mean",0.0311 nmol/million cells
same,Cellular concentration,"[3]; 15 min, single replicates, MOLM-14, 200 nM",0.0307 nmol/million cells and 0.0322 nmol/million cells and 0.0305 nmol/million cells
same,Cellular concentration,"[3]; 30 min, Mean",0.0281 nmol/million cells
same,Cellular concentration,"[3]; 30 min, single replicates, MOLM-14, 200 nM",0.0259 nmol/million cells and 0.0296 nmol/million cells and 0.0288 nmol/million cells
same,Cellular concentration,"[3]; 60 min, Mean",0.0260 nmol/million cells and 0.026 nmol/million cells
same,Cellular concentration,"[3]; 60 min, single replicates, MOLM-14, 200 nM",0.0240 nmol/million cells and 0.0274 nmol/million cells and 0.0266 nmol/million cells and 0.024 nmol/million cells
same,Cellular concentration,"[3]; 90 min, Mean",0.0287 nmol/million cells
same,Cellular concentration,"[3]; 90 min, single replicates, MOLM-14, 200 nM",0.0290 nmol/million cells and 0.0275 nmol/million cells and 0.029 nmol/million cells and 0.0295 nmol/million cells
same,Cellular concentration,"[3]; 120 min, Mean",0.0261 nmol/million cells
same,Cellular concentration,"[3]; 120 min, single replicates, MOLM-14, 200 nM",0.0239 nmol/million cells and 0.0281 nmol/million cells and 0.0261 nmol/million cells
same,Cellular concentration,"[3]; 240 min, Mean",0.0238 nmol/million cells
same,Cellular concentration,"[3]; 240 min, single replicates, MOLM-14, 200 nM",0.0228 nmol/million cells and 0.0239 nmol/million cells and 0.0246 nmol/million cells
same,Quantification anti-BTK / anti-β-actin (BTK level vs DMSO),[4]; 8 nM,93.1337 and 89.8918
same,Quantification anti-BTK / anti-β-actin (BTK level vs DMSO),[4]; 40 nM,73.5656 and 73.5943
same,Quantification anti-BTK / anti-β-actin (BTK level vs DMSO),[4]; 200 nM,64.1549 and 63.4726
same,BTK degradation (in words),"[4]; MOLM-14 cells, indicated doses, 24 h",induced inefficient BTK degradation; also recorded: very little BTK degradation was observed
